According to patent US6680295B1, “Method and pharmaceutical composition for prevention and treatment of brain damage” (priority 1994, dated 2004):
No end group written: not given here.

Experiments:
[1] = molecular target: T1, PACAP binding sites in rat brain membrane preparations (Rattus norvegicus, UniProt P32215); test: Radioreceptor assay: displacement of 125I-PACAP27 binding to E18 rat brain membranes; conditions: for displacement of 125I-PACAP27 binding: unlabeled peptide
T1 construct: from tissue; host or cells: rat brain membrane preparations (E18 whole brain; other ages and regions also dissected)
T1 sequence (P32215 20-523): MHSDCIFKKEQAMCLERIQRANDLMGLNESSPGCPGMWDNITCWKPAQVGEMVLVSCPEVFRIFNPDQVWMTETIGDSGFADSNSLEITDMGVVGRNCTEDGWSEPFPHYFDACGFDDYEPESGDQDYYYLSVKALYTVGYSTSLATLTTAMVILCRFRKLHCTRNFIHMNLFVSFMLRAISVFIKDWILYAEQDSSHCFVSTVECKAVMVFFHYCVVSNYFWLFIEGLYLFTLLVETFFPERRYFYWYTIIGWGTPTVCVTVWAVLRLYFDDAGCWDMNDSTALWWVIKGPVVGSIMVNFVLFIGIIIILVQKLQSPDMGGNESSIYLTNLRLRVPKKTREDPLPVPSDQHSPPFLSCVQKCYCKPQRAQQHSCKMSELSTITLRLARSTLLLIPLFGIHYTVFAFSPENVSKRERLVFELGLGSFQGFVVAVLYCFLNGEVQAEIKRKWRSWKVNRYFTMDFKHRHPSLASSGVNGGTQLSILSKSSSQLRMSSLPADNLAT
Text: Male CD rats (Charles River Breeding Labs., Wilmington, Mass.) were used throughout this example. The following regions of the brain were dissected at the indicated ages: embryonic day E14 (whole brain); E18 (whole brain, neocortex, hippocampus, and diencephalon); postnatal days P0, P7 and P14 (whole brain, neocortex, hippocampus, diencephalon, and cerebellum); and 1-, 2- and 3-months old (MO) (whole brain, neocortex, hippocampus, diencephalon, and cerebellum). After dissection, each region was immediately frozen on dry-ice and stored at −70 C. for up to 2 months until the receptor and peptide levels were determined. […] Arimura, et al., Endocrinology 129: 2787-2789 (1991). […] Gottschall, et al., Endocrinology 127: 272-277 (1990), and Gottschall, et al., FASEB J 5: 194-199 (1991).
Gottschall, et al., Endocrinology 127: 272-277 (1990) and Gottschall, et al., FASEB J 5: 194-199.

[2] = rat, in vivo
Protocol: FIG. 15 is a graph showing ^125I -PACAP 38 levels in brain tissue 10 minutes after icv injection, at 1×10^6 cpm ^125I-PACAP38.
This calculation was based on the transport of ^125I-labelled peptide given icv as a bolus but slow injection over 5 min. 1×10^6 cpm ^125I-PACAP38 was injected icv in anesthetized rats, the cpm in the brain tissues 10 min after the injection is shown in FIG. 15.
The labelled peptide was injected into the right lateral ventricle.

CNS cultures, cAMP = test: cAMP in CNS cultures at the peptide concentrations that increase neuronal survival; format: cell-based; conditions: 0.1 nM, any CNS culture system
[3] = system: cultured rat neurons, intracellular cAMP; test: cAMP response in cultured rat neurons (RIA); format: cell-based; conditions: neuron cultures
Protocol: Neuron cultures were prepared from brains of 1 day-old rats. 1×10^7 cells were plated in each dish (35 mm diameter).
(§1) Yada, et al., J. Biol. Chem. 269: 1290-1293 (1994).

[4] = system: dissociated hippocampal cultures; conditions: cited from earlier work
[5] = system: cultured rat astrocytes, intracellular cAMP; test: cAMP response in cultured rat astrocytes (RIA); format: cell-based; conditions: astrocyte cultures
Protocol: Astrocytes cultures were prepared from brain of neonatal rats. Astrocytes were allowed to proliferate for 7-10 days before experiments.
as §1

Type I PACAP receptor = molecular target: T2, Type I PACAP receptor (Homo sapiens, UniProt P41586); conditions: cited from earlier work
T2 sequence (P41586 21-468): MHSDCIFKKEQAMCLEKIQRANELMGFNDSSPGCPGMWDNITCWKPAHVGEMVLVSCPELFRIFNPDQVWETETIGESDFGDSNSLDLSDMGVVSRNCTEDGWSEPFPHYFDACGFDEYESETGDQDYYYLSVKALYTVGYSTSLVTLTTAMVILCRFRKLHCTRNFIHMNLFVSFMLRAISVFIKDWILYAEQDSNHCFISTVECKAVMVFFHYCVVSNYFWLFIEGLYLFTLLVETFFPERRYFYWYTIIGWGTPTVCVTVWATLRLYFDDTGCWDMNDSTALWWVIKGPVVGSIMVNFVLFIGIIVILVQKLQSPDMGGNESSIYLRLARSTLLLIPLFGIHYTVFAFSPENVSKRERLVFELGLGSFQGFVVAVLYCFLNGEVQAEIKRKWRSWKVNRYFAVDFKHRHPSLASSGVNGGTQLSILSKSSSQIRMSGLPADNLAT

hippocampal CA1 neurons [6] = test: Forebrain ischemia, hippocampal CA1 neuronal cell death, iv infusion started immediately after ischemia; format: in vivo, rat
Protocol: (§2) The clips were removed 15 minutes later. […] The incision wound was closed.
PACAP38 was administered i.v. to rats (see example 5) over one week, starting immediately after ischemia/reperfusion. […] In this experiment, 20 μg/kg (approximately 4 nmol/kg) was given as a bolus iv injection before the infusion began.

[7] = system: dissociated hippocampal cultures; test: Prevention of gp120-induced neuronal cell death in dissociated hippocampal cultures; format: cell-based, mice; conditions: 1 pM gp120, five days
Protocol: The cultures were prepared from 16-17 day-old mice embryos (C57B1/6) as previously described. Brenneman, et al., Nature 335: 639-642 (1988). Before treatment, the cultures were given a complete change of medium. […] Cell counts were conducted on 60 fields, 0.12 mm^2 each. Neurons were identified immunocytochemically using antiserum against neuron specific enolase. Schmechel, et al., Nature 276: 834-836 (1978). Each value is the mean of 3-5 dishes.
Brenneman, et al. Nature 335: 639-642 (1988). […] Brenneman, et al. Nature 335: 639-642 (1988). […] Arimura, et al., Trends Endocr. Metab. 3: 288-294 (1993). Arimura et al., Ann NY Acad. Sci. 739:228-243 (1994).

hippocampal CA1 neurons [8] = test: Forebrain ischemia, hippocampal CA1 neuronal cell death, iv infusion started 24 hrs after ischemia; format: in vivo, rat; conditions: bolus and infusion started 24 hrs after ischemia
Protocol: FIG. 18 is a graph showing the cytoprotective effect of iv infusion of PACAP38 which started 24 hrs. after ischemia in rats.
as §2
Neuronal cell death in CA1 induced by forebrain ischemia progresses slowly. One day after ischemia/reperfusion many viable neurons were still seen in CA1. However, nearly all neurons died one week after ischemia. Therefore, if the administration of PACAP38 is started 24 hrs after ischemia, the treatment could possibly still prevent the slow death of the neurons. To test this hypothesis, a bolus iv injection and subsequent iv infusion of PACAP38 was started 24 hrs after ischemia.

[9] = system: motoneurons in the lateral motor column (LMC); test: Survival of motoneurons in lumbar lateral motor column of chick embryo
Protocol: Embryos received vehicle, or 5 nM or 25 nM PACAP (concentrations in the egg after injection) daily from E6 to E9. Average LMC is represented by 320-340 sections and cell counts were made on every tenth section. Sum of live cells in all counted sections multiplied by 10 is shown in this figure. Numbers indicate mean numbers of live cells in 6 LMC in each group. Bars indicate SME.
Effect of PACAP on natural neuronal cell death was also examined in chick embryos using similar experimental procedures described by Hamburger and Montalcini. […] Fertilized White Leghorn eggs (Troslow Farms) were incubated at 39 C. at 99% humidity. A small hole was opened at the top of the egg on E3 ½ (Stage 23) by punching with micro-dissecting tweezers. […]
In the lumbar motor column (LMC), intact motoneurons were easily distinguishable from surrounding cells due to their large size and deeply stained perikaryon. Only those neurons with an intact nuclear membrane and at least one visible nucleolus were counted as live cells. Every tenth section of the LMC was counted, and the sum of the sections multiplied by ten to obtain a data point. A total of 6 motor columns was counted in each of the control and experimental groups.

[10] = system: dorsomedial population of dorsal root ganglia (DRG18); test: Natural neuronal cell death in dorsal root ganglion DRG18 of chick embryo; conditions: 25 nM in the egg daily E3 1/2 to E8 1/2, counted on E9, p<0.01
Protocol: The control group received vehicle and the experimental group received PACAP38 (25 nM in the egg) daily from E3 ½ to E8 ½. Number is the mean of the numbers of degenerating cells in 6 ganglia in each group. Bar indicates SEM.
Effect of PACAP on natural neuronal cell death was also examined in chick embryos using similar experimental procedures described by Hamburger and Montalcini. […] Fertilized White Leghorn eggs (Troslow Farms) were incubated at 39 C. at 99% humidity. A small hole was opened at the top of the egg on E3 ½ (Stage 23) by punching with micro-dissecting tweezers. One μl/g of egg weight of sterile Tyrode solution or solution containing 5 μM or 25 μM PACAP38 was administered daily through the hole onto the highly vascularized chorioallantoic membrane from day E3 ½ through E8 ½ in the experiment for dorsal root ganglion (DRG), and from E6 through E9 for lumbar motor column (LMC). […]
The magnification used (×400), one can observe DRG18 divided into two populations of cells: large differentiating ventrolateral (VL) and small, late differentiating dorsomedial (DM) cells. […] Macrophages containing debris of several cells were encountered rarely and counted as two degenerating cells. Every second section of the ganglia was counted, and the sum multiplied by two to obtain a data point. A total of 6 ganglia were counted in each of the control and experimental groups, respectively.

hippocampal CA1 neurons [11] = test: Forebrain ischemia/reperfusion (four vessel occlusion), hippocampal CA1 neuronal cell death, icv administration
Protocol: Each column indicates viable cell number 7 days after 15 min ischemia of the forebrain of rats which were intracerebroventricularly administered the vehicle alone or the vehicle containing varying amounts of PACAP38. The numbers of cells are expressed by percentages of live cells as compared with the cells in the same area of the intact rat hippocampus. […] FIGS. 13A-F are microphotographs of coronal sections of the right hippocampal CA1 from intact rats and rats subjected to forebrain ischemia for 15 min. The sections were stained with cresyl violet (A, B, C) and immunostained for MAPII (D, E, F). A, D: Intact rats. B, E: 7 days after ischemia in vehicle-infused (icv) rats. […] PACAP38 administration started immediately after ischemia.
Adult male rats of CD strain weighing 270-300 g body weight (Charles River Breeding labs, Wilmington, Miss.) were used. Under Ketamine anesthesia, the bilateral vertebrate arteries were permanently occluded at the first cervical vertebra by electrocoagulation. Bilateral carotid arteries were exposed and a loop of silicon rubber tubing was placed around each carotid artery, leaving the end of the tubing outside the suture. The animal was left in the laboratory with water, but without food. The following morning, both loops around the carotid arteries were pulled and artery clips were applied on the loops at the portion close to the skin so that both carotid arteries were occluded and ischemia of the brain occurred as long as the clips remained. The clips were removed 15 minutes later. During ischemia, body temperature was monitored by thermometer placed in the rectum and the body temperature was maintained at 37° C. by radiation heat from light bulb. […] Reperfusion of bilateral carotid arteries was assured by direct visual examination. The incision wound was closed.
Soon after the reperfusion of the carotid arteries began, the animal was placed on a stereotaxic instrument, the skull was exposed, and a small hole was made by a dental drill at anterior 0.6 lateral 1.5, vertical 5.0 mm from the bregma and skull surface, and guided cannula (Alza Corp., Palo Alto, Calif.) was inserted into the hole so that the tip of the cannula is in the lateral cerebroventricle and fixed on the skull by dental cement. The incised skin was then closed by suture. Then 10 μl of artificial cerebrospinal fluid (CSF) containing 0.1% bovine serum albumin (ESA) or the vehicle containing varying amounts of PACAP38 was introduced.
PACAP38 was icv infused into the right lateral cerebroventricle of rats having neuronal cell damage in the CA1 of the hippocampus as discussed in example 5. The effect of the icv infusion of PACAP38 on ischemia-induced neuronal cell death in the hippocampal CA1 in rats was measured.

[12] = molecular target: T3, PACAP receptor (PACAP binding sites) in rat brain membrane preparations (rat, UniProt P32215 20-523); test: Scatchard analysis of displacement of 125I-PACAP27, E18 rat brain membranes; reference PACAP27
T3 construct: whole, on cells; Native receptor in crude brain membranes, not a recombinant protein; also called the receptor
T3 sequence (looked up): T1 sequence (P32215 20-523)

glucagon: structurally related peptide used in binding competition
displacement of 125I-PACAP27 binding [1]: did not displace

GHRH: structurally related peptide used in binding competition
displacement of 125I-PACAP27 binding [1]: did not displace

^125I-PACAP38
CPM in right hippocampus relative to left [2]: four times greater | radioactivity in left hippocampus [2]: 5 cpm per mg tissue | radioactivity in right hippocampus [2]: 20 cpm per mg tissue

secretin: structurally related peptide used in binding competition
displacement of 125I-PACAP27 binding [1]: did not displace

VIP: vasoactive intestinal peptide
cAMP response at the concentration that increases neuronal survival (CNS cultures, cAMP): no increases in cAMP | potency in increasing cellular cAMP, times less potent than PACAP [3]: approximately 1000 times | effect on neuronal death in gp120-treated cultures ([4]; 0.1 nM): prevented neuronal death | effect on neuronal cell death associated with gp120 treatment ([4]; murine hippocampal cultures): potently and completely prevented | potency in increasing cellular cAMP, times less potent than PACAP [5]: approximately 1000 times | affinity for Type I PACAP receptor, times less than that of PACAP (Type I PACAP receptor): 1000 times | binding to Type I PACAP receptor (Type I PACAP receptor): do not bind | displacement of 125I-PACAP27 binding [1]: did not displace

PACAP[1-38]-NH2 [PACAP38]
effect on ischemia-induced neuronal cell death in CA1 (hippocampal CA1 neurons [6]; iv 16 pmol/hr over one week after 20 μg/kg iv bolus): attenuated neuronal cell death significantly | effect on ischemia-induced neuronal cell death in CA1 (hippocampal CA1 neurons [6]; iv 160 pmol/hr over one week after 20 μg/kg iv bolus): attenuated neuronal cell death significantly | lower peak of bimodal dose-response curve of cytoprotection [7]: 0.1 pM | upper peak of bimodal dose-response curve of cytoprotection [7]: 0.1 nM | effect on ischemia-induced neuronal cell death in CA1 (hippocampal CA1 neurons [8]; iv 16 pmol/hr): significantly (<0.01) attenuated brain cell death | effect on ischemia-induced neuronal cell death in CA1 (hippocampal CA1 neurons [8]; iv 160 pmol/hr): significantly (<0.01) attenuated brain cell death | increase in number of motoneurons per motor column ([9]; 5 nM in the egg daily E6 to E9, counted on E10): 7.2% | increase in number of motoneurons per motor column ([9]; 25 nM in the egg daily E6 to E9, counted on E10): 12.5% | number of degenerating cells less than in untreated embryos [10]: 37.2% | most effective continuous icv infusion rate (hippocampal CA1 neurons [11]; after bolus 450 ng/10 μl H2O over 10 min, infusion over seven days, FIG. 12): 45 ng/µL/h | icv dose of maximum cytoprotective effect (bell-shaped dose-response) (hippocampal CA1 neurons [11]; icv infusion into right lateral cerebroventricle over one week, FIG. 16): 1 pmol/h | effect on ischemia-induced neuronal cell death in CA1 (hippocampal CA1 neurons [11]; icv infusion over one week, viable neurons 7 days after ischemia): significantly prevented the neuronal cell death | effect on ischemia-induced cell death in CA1 (histology) (hippocampal CA1 neurons [11]; icv osmotic pump 1 pmol/h over one week, started immediately after ischemia, 7 days): prevented ischemia-induced cell death in CA1 | most effective icv dose (hippocampal CA1 neurons [11]; icv over 7 days, 10, 1, 0.1 and 0.01 pmol/h tested, FIG. 14): 1 pmol/h | affinity for the receptor relative to PACAP27 (higher) [1]: about 10 fold | displacement of 125I-PACAP27 binding [1]: more effectively than did PACAP27

B1: Pituitary adenylate cyclase activating polypeptide, complete form with 38 amino acids (PACAP38) (peptide)
peptide: HSDGIFTDSYSRYRKQMAVKKYLAAVLGKRYKQRVKNK-NH2
notes: Synthetic peptide made by solid phase synthesis; also called PACAP[1-38]-NH2; unlabeled PACAP38
fold higher affinity than PACAP27 [12]: ~10 fold
